# Values quoted from earlier work, collected in paper PMC8915598.
# Assay: not told
row,Compound,log partition octanol / water [log10]
1,NC(=O)c1ccc(N)cc1,-0.41
2,CC(=O)Nc1ccc(Cl)cc1,2.12
